Measured values: patent US8399512B2, “Biocompatible biodegradable fumagillin analog conjugates” (Mersana Therapeutics, Inc., priority 2007, dated 2013)

Key:
[1] = system: B16F10 tumor cells; assay: Tumor growth delay in B16F10 mouse melanoma; assay type: in vivo; details: IV, q3d × 4, BDF1 mice
Experimental: BDF1 female mice (N=6) with 1×10^6 B16F10 tumor cells positioned subcutaneous in the flank were treated with various fumagillin conjugates of the invention. Tumor growth was monitored in parallel with positive and negative controls of cyclophosphamide and saline respectively. Treatment began when tumors reached an average size of 80-120 mg and tumor volumes were measured two times per week until animals reached an endpoint tumor volume of 2 grams or 45 days, whichever came first. Conjugates were administered as solutions in saline intravenously at dose levels of 30-100 mg/kg (expressed as fumagillin analog equivalents) on a schedule of q3dx4. Treatment outcomes were assessed in terms of percent tumor growth delay (% TGD), (see FIG. 1) defined as the percent increase in median time to endpoint for mice treated with an agent compared to those treated with saline.

[2] = system: human umbilical vein endothelial cells (HUVECs); assay: Inhibitory effect on HUVEC cell growth (MTS/PES colorimetry); assay type: cell-based; details: cultured 5 days, MTS/PES absorbance 490 nm
Experimental: Using human umbilical vein endothelial cells (HUVECs), the effect of the fumagillin analog conjugates and the fumagillin analogs on cell growth was evaluated.
The HUVECs were added to M199 medium supplemented with 20% FBS, after which the cells were incubated at 37° C. under 5% CO2. 96-well plates were seeded at 5,000 cells/well in a total volume of 100 μL. The cells were left overnight to attach to the plate. Cells were subcultured a maximum of 15 times before being discarded.
To evaluate the inhibitory activity of the fumagillin conjugate or the fumagillin analog alone on the growth of HUVEC cells, the conjugate or fumagillin analog was dissolved in the required amount of 0.9% saline, vortexed briefly to wet and disperse the solids, followed by vortexing for a total of 30 min. […] The cells were treated with the conjugate solution or fumagillin analog solution at various concentrations ranging from 30 nM to 0.01 nM, and cultured for 5 days at 37° C.
Colorimetry was performed to determine the extent of cell growth by adding 20 μL of MTS/PES reagent to each well, incubation for 4 h at 37° C. followed by measuring the absorbance at 490 nm.

[3] = 80 mg/kg fumagillin analog equiv.

Row | Compound | IC50 ([2]; Homo sapiens, 120 h) | further results
1 | CCOC(=O)CCN1CCN(C(=O)O[C@@H]2CC[C@]3(CO3)[C@@H](C3(C)O[C@@H]3CC=C(C)C)[C@@H]2OC)CC1 (stereo partly drawn) [Compound 22] | < 25 nM | % TGD ([1]; 30 mg/kg fumagillin analog equiv.): 5-20%
2 | CO[C@H]1[C@H](C2(C)O[C@@H]2CC=C(C)C)[C@]2(CC[C@H]1OC(=O)NC(=O)CSc1cccc(NC(=O)CCC(=O)O)c1)CO2 (stereo partly drawn) [Compound 52] | < 25 nM | 
3 | CO[C@@H]1C(=O)CC[C@]2(CO2)[C@H]1C1(C)O[C@@H]1CC=C(C)C (stereo partly drawn) [Compound 20] | < 25 nM | 
4 | COC(=O)c1ccc(C(=O)N[C@@H]2CC[C@]3(CO3)[C@@H](C3(C)O[C@@H]3CC=C(C)C)[C@@H]2OC)cc1 (stereo partly drawn) [Compound 46] | < 25 nM | 
5 | CCN1CCN(C(=O)O[C@@H]2CC[C@]3(CO3)[C@@H](C3(C)O[C@@H]3CC=C(C)C)[C@@H]2OC)CC1 (stereo partly drawn) [Compound 9] | < 25 nM | % TGD ([1]; 100 mg/kg fumagillin analog equiv.): 20-50%
6 | CO[C@H]1[C@H](C2(C)O[C@@H]2CC=C(C)C)[C@]2(CC[C@H]1OC(=O)NCc1ccc(NC(C)=O)cc1)CO2 (stereo partly drawn) [Compound 17] | < 25 nM | 
7 | COc1ccc2[nH]cc(CCC(=O)O[C@@H]3CC[C@]4(CO4)[C@@H](C4(C)O[C@@H]4CC=C(C)C)[C@@H]3OC)c2c1 (stereo partly drawn) [Compound 32] | < 25 nM | % TGD [1, 3]: 20-50%
8 | COc1cc(/C=C/C(=O)N[C@@H]2CC[C@]3(CO3)[C@@H](C3(C)O[C@@H]3CC=C(C)C)[C@@H]2OC)cc(OC)c1OC (stereo partly drawn) [Compound 37] | 25 to 100 nM | 
9 | CO[C@H]1[C@H](C2(C)O[C@@H]2CC=C(C)C)[C@]2(CC[C@H]1NC(=O)C13CCC(C(=O)NCCCOC(=O)[C@@H]4CCCN4)(CC1)CC3)CO2 (stereo partly drawn) [Compound 49] | 100 to 300 nM | 
10 | CO[C@H]1[C@H](C2(C)O[C@@H]2CC=C(C)C)[C@]2(CC[C@H]1OC(=O)NCc1ccccc1)CO2 (stereo partly drawn) [Compound 5] | < 25 nM | 
11 | CO[C@H]1[C@H](C2(C)O[C@@H]2CC=C(C)C)[C@]2(CC[C@H]1NC(=O)CCl)CO2 (stereo partly drawn) [Compound 44] | < 25 nM | % TGD [1, 3]: 5-20%
12 | CO[C@H]1[C@H](C2(C)O[C@@H]2CC=C(C)C)[C@]2(CC[C@H]1OC(=O)N1CCN(CCOC(=O)C3CCCN3C(=O)OCC3c4ccccc4-c4ccccc43)CC1)CO2 (stereo partly drawn) [Compound 55] | < 25 nM | 
13 | CO[C@H]1[C@H](C2(C)O[C@@H]2CC=C(C)C)[C@]2(CC[C@H]1NC(=O)c1ccc(C(=O)NCCCO)cc1)CO2 (stereo partly drawn) [Compound 48] | < 25 nM | 
14 | CO[C@H]1[C@H](C2(C)O[C@@H]2CC=C(C)C)[C@]2(CC[C@H]1NC(=O)C13CCC(C(=O)NCCCOC(=O)C4CCCN4)(CC1)CC3)CO2 (stereo partly drawn) [Compound 42] | 100 to 300 nM | 
15 | CO[C@H]1[C@H](C2(C)O[C@@H]2CC=C(C)C)[C@]2(CC[C@H]1NC(=O)C13CCC(C(=O)NCCCOC(=O)[C@H](C)N)(CC1)CC3)CO2 (stereo partly drawn) [Compound 41] | 100 to 300 nM | 
16 | COc1ccc2c(ccn2C(=O)O[C@@H]2CC[C@]3(CO3)[C@@H](C3(C)O[C@@H]3CC=C(C)C)[C@@H]2OC)c1 (stereo partly drawn) [Compound 23] | < 25 nM | % TGD [1, 3]: 5-20%
17 | COC(=O)[C@@H](N)CSCC(=O)NC(=O)O[C@@H]1CC[C@]2(CO2)[C@@H](C2(C)O[C@@H]2CC=C(C)C)[C@@H]1OC (stereo partly drawn) [Compound 3] | < 25 nM | 
18 | CO[C@H]1[C@H](C2(C)O[C@@H]2CC=C(C)C)[C@]2(CC[C@H]1OC(=O)NCCc1ccc(N)cc1)CO2 (stereo partly drawn) [Compound 11] | < 25 nM | % TGD ([1]; 65 mg/kg fumagillin analog equiv.): 20-50%
19 | CO[C@@H]1[C@H](O)CC[C@]2(CO2)[C@H]1C1(C)O[C@@H]1CC=C(C)C (stereo partly drawn) [Compound 25] | > 30 nM | % TGD [1, 3]: 20-50%
20 | CO[C@H]1[C@H](C2(C)O[C@@H]2CC=C(C)C)[C@]2(CC[C@H]1NC(=O)c1ccc([N+](=O)[O-])cc1)CO2 (stereo partly drawn) [Compound 19] | < 25 nM | % TGD ([1]; 40 mg/kg fumagillin analog equiv.): 20-50%
21 | CO[C@H]1[C@H](C2(C)O[C@@H]2CC=C(C)C)[C@]2(CC[C@H]1OC(=O)N1CCN(CCO)CC1)CO2 (stereo partly drawn) [Compound 7] | < 25 nM | % TGD [1, 3]: 5-20%
22 | CO[C@H]1[C@H](C2(C)O[C@@H]2CC=C(C)C)[C@]2(CC[C@H]1OC(=O)NC(=O)CSc1cccc(N)c1)CO2 (stereo partly drawn) [Compound 35] | < 25 nM | % TGD [1, 3]: 20-50%
23 | COC(=O)C(=O)O[C@@H]1CC[C@]2(CO2)[C@@H](C2(C)O[C@@H]2CC=C(C)C)[C@@H]1OC (stereo partly drawn) [Compound 16] | > 30 nM | % TGD [1, 3]: 20-50%
24 | CO[C@H]1[C@H](C2(C)O[C@@H]2CC=C(C)C)[C@]2(CC[C@H]1OC(=O)C(=O)N(C)OC)CO2 (stereo partly drawn) [Compound 15] | > 30 nM | % TGD [1, 3]: >50%

Row | Compound | IC50 ([2]; Homo sapiens, 120 h) | further results
25 | CO[C@H]1[C@H](C2(C)O[C@@H]2CC=C(C)C)[C@]2(CC[C@H]1OC(=O)/C=C/C=C/C=C/C=C/C(=O)O)CO2 (stereo partly drawn) [Compound 24] | < 25 nM | 
26 | CO[C@H]1[C@H](C2(C)O[C@@H]2CC=C(C)C)[C@]2(CC[C@H]1OC(=O)N1CCN(C(=O)[C@H](C)N)CC1)CO2 (stereo partly drawn) [Compound 56] | < 25 nM | 
27 | CO[C@H]1[C@H](C2(C)O[C@@H]2CC=C(C)C)[C@]2(CC[C@H]1OC(=O)N[C@@H](C)c1ccccc1)CO2 (stereo partly drawn) [Compound 6] | < 25 nM | % TGD [1, 3]: 5-20%
28 | CO[C@H]1[C@H](C2(C)O[C@@H]2CC=C(C)C)[C@]2(CC[C@H]1OC(=O)N1CCN(C(C)=O)CC1)CO2 (stereo partly drawn) [Compound 10] | < 25 nM | % TGD ([1]; 60 mg/kg fumagillin analog equiv.): 20-50%
29 | COC1=CCC[C@]2(CO2)[C@H]1C1(C)O[C@@H]1CC=C(C)C (stereo partly drawn) [Compound 27] | < 25 nM | % TGD ([1]; 50 mg/kg fumagillin analog equiv.): 5-20%
30 | CO[C@H]1[C@H](C2(C)O[C@@H]2CC=C(C)C)[C@]2(CC[C@H]1NC(=O)C13CCC(C(=O)NCCCO)(CC1)CC3)CO2 (stereo partly drawn) [Compound 38] | 25 to 100 nM | % TGD [1, 3]: 5-20%
31 | CO[C@H]1[C@H](C2(C)O[C@@H]2CC=C(C)C)[C@]2(CC[C@H]1OC(=O)/C=C/c1ccc(OCCN(C)C)cc1)CO2 (stereo partly drawn) [Compound 36] | < 25 nM | 
32 | CO[C@H]1[C@H](C2(C)O[C@@H]2CC=C(C)C)[C@]2(CC[C@H]1OC(=O)NC(=O)CCl)CO2 (stereo partly drawn) [Compound 2] | < 25 nM | 
33 | CO[C@H]1[C@H](C2(C)O[C@@H]2CC=C(C)C)[C@]2(CC[C@H]1OC(=O)NCc1ccc(NC(=O)[C@H](C)N)cc1)CO2 (stereo partly drawn) [Compound 50] | < 25 nM | 
34 | CO[C@H]1[C@H](C2(C)O[C@@H]2CC=C(C)C)[C@]2(CC[C@H]1NC(=O)CSc1ccc(N)cc1)CO2 (stereo partly drawn) [Compound 45] | < 25 nM | 
35 | CCOC(=O)C1CCC(CNC(=O)O[C@@H]2CC[C@]3(CO3)[C@@H](C3(C)O[C@@H]3CC=C(C)C)[C@@H]2OC)CC1 (stereo partly drawn) [Compound 29] | < 25 nM | 
36 | CO[C@H]1[C@H](C2(C)O[C@@H]2CC=C(C)C)[C@]2(CC[C@H]1NC(=O)NC(=O)CCl)CO2 (stereo partly drawn) [Compound 28] | < 25 nM | 
37 | COC(=O)C12CCC(C(=O)O[C@@H]3CC[C@]4(CO4)[C@@H](C4(C)O[C@@H]4CC=C(C)C)[C@@H]3OC)(CC1)CC2 (stereo partly drawn) [Compound 1] | < 25 nM | 
38 | CO[C@H]1[C@H](C2(C)O[C@@H]2CC=C(C)C)[C@]2(CC[C@H]1OC(=O)NC(=O)CSc1ccc(N)cc1)CO2 (stereo partly drawn) [Compound 30] | < 25 nM | 
39 | CO[C@H]1[C@H](C2(C)O[C@@H]2CC=C(C)C)[C@]2(CC[C@H]1OC(=O)NC(=O)CSc1ccc(C(=O)O)cc1)CO2 (stereo partly drawn) [Compound 34] | < 25 nM | 
40 | CO[C@H]1[C@H](C2(C)O[C@@H]2CC=C(C)C)[C@]2(CC[C@H]1NC(=O)N1CCN(CCO)CC1)CO2 (stereo partly drawn) [Compound 53] | 25 to 100 nM | 
41 | CO[C@H]1[C@H](C2(C)O[C@@H]2CC=C(C)C)[C@]2(CC[C@H]1OC(=O)N1CCN(CCOC(=O)CCC(=O)O)CC1)CO2 (stereo partly drawn) [Compound 54] | < 25 nM | 
42 | CO[C@H]1[C@H](C2(C)O[C@@H]2CC=C(C)C)[C@]2(CC[C@H]1NC(=O)NCCc1ccc(N)cc1)CO2 (stereo partly drawn) [Compound 57] | < 25 nM | 
43 | CO[C@H]1[C@H](C2(C)O[C@@H]2CC=C(C)C)[C@]2(CC[C@H]1OC(=O)NS(=O)(=O)N1CCN(C(C)=O)CC1)CO2 (stereo partly drawn) [Compound 47] | < 25 nM | 
44 | COc1cc(/C=C/C(=O)O[C@@H]2CC[C@]3(CO3)[C@@H](C3(C)O[C@@H]3CC=C(C)C)[C@@H]2OC)cc(OC)c1OC (stereo partly drawn) [Compound 21] | < 25 nM | 
45 | COC(=O)[C@@H](N)CSCC(=O)NC(=O)O[C@@H]1CC[C@]2(CO2)[C@@H](C2(C)O[C@@H]2CC=C(C)C)[C@@H]1OC (stereo partly drawn) [Compound 14] |  | IC50 [2]: < 25 nM
46 | COC(=O)C12CCC(C(=O)N[C@@H]3CC[C@]4(CO4)[C@@H](C4(C)O[C@@H]4CC=C(C)C)[C@@H]3OC)(CC1)CC2 (stereo partly drawn) [Compound 43] | < 25 nM | 
47 | CO[C@H]1[C@H](C2(C)O[C@@H]2CC=C(C)C)[C@]2(CC[C@H]1OC(=O)/C=C/c1ccc(O)cc1)CO2 (stereo partly drawn) [Compound 4] | > 30 nM | 
